Results reported in US20030170296A1, “Transdermal drug delivery system” (priority 2000, published 2003).

Legend:
[1] = cited from earlier work
[2] = Pharmacokinetic study of transdermal APAP in rats; assay type: in vivo, rats (Sprague-Dawley); conditions: 100 mg APAP enhancer-containing transdermal system vs regular 100 mg patch, n=6 per group (FIG. 3)
Protocol: Methodology: Anesthetized (15 mg/kg pentobarbital sodium i.p.) rats (Sprague-Dawley, 500-600 g), were placed on their back, the abdominal hair was trimmed off, and the skin was washed gently with distilled water. Anesthesia was maintained with 0.1 ml pentobarbital (15 mg/ml) along the experiment. […] Blood samples were taken from the tail vein into heparanized tubes at t=0, 1, 2, 3, 4, 5, 7 and 9 hours from the time of application.
After centrifugation, plasma were analyzed for APAP by EMIT kit (Serum Tox EIA Assay, Diagnostic Reagents, Inc.).

[3] = male, CD1 hairless, mouse, 24 h, pH 7.4
[4] = single application of hydrogel disc system to skin; neonates with apnea; cited from earlier work

CC(=O)Nc1ccc(O)cc1 [APAP, Acetaminophen]
Volume of distribution ([1]; in vivo): 0.95 L/kg | binding to plasma proteins ([1]; in vivo): 20% | effective plasma concentrations ([1]; in vivo): 10 to 20 µg/mL | plasma elimination half life ([1]; similar in children and adults): about 2 hours | drug recovered in the urine ([1]; therapeutic doses): 90-100% | recovered in urine conjugated with cysteine ([1]; therapeutic doses): about 2% | recovered in urine conjugated with glucuronic acid ([1]; therapeutic doses): about 60% | recovered in urine conjugated with sulfuric acid ([1]; therapeutic doses): about 35% | unchanged APAP in urine ([1]; therapeutic doses): about 2% | systemic penetration (plasma APAP) [2]: significant increase in penetration

O=C(O)Cc1ccccc1Nc1c(Cl)cccc1Cl [diclofenac]
higher dose of diclofenac delivered vs regular application of Voltaren Emulgel [3]: 12 fold

Cn1c(=O)c2[nH]cnc2n(C)c1=O [theophylline]
duration of therapeutic concentrations [4]: up to 3 days
